Measurements reported in patent US11524966B1 (Valo Early Discovery, Inc., priority 2017, dated 2022).

Biological target: T1, USP28 (USP28-5(1-1077)-TEV-6*His; LifeSensors) (Homo sapiens, UniProt Q96RU2)
T1 construct: construct USP28 (USP28-5(1-1077)-TEV-6*His; LifeSensors); TEV cleavage site (C); 6xHis (C); purchased LifeSensors
T1 sequence (Q96RU2 1-1077): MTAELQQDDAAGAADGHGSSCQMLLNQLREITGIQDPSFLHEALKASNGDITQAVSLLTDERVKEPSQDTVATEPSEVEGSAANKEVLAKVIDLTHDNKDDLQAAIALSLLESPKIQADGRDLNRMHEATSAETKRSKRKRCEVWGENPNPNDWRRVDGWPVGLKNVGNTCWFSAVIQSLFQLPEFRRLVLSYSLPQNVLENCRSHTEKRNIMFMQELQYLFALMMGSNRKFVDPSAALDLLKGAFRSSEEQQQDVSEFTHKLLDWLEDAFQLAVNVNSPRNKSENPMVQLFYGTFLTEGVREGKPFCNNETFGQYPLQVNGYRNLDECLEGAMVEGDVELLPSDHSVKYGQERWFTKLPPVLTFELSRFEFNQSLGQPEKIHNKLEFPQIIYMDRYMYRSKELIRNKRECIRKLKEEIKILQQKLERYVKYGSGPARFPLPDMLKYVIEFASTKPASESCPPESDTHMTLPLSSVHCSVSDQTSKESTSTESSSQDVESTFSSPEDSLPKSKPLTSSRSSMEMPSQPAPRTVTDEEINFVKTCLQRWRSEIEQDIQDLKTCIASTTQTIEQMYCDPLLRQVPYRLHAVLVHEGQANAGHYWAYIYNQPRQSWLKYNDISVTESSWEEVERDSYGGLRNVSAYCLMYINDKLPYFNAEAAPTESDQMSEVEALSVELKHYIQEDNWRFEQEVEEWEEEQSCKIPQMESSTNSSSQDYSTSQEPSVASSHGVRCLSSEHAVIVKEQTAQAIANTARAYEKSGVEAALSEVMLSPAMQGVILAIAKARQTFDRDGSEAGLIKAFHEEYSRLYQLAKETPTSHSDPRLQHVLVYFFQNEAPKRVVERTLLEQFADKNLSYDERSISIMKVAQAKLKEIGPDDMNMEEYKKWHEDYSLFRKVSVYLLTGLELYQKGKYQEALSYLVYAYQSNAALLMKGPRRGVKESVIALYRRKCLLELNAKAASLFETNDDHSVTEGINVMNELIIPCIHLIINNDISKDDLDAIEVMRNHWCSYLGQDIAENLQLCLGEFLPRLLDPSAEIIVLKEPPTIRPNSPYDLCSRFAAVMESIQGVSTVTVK
Test: Ubiquitin-Rhodamine 110 Assay for USP28 Activity, Example A-1(b)
Assay type: biochemical
Conditions: Ubiquitin-Rhodamine 110 assay, Example A-1(b)
Procedure, shortened: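 Single-point screening used 10 μM compound with 90 min room-temperature incubation; follow-up dose-responses (25 μM top, 3-fold) used 75 pM USP28 1-1077 construct, 30 min compound preincubation, 25 nM Ub-Rh110, 20 min reaction, citric acid quench. Rh110 fluorescence normalised to no-enzyme and DMSO controls; IC50 from 4-parameter logistic fit.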

## Cc1ccc2c(N)c(C(=O)N[C@H]3COc4cc(N5CCNCC5)cc(F)c4C3)oc2n1 [Example 169, 3-amino-N-[(3R)-5-fluoro-7-(piperazin-1-yl)-3,4-dihydro-2H-1-benzopyran-3-yl]-6-methylfuro[2,3-b]pyridine-2-carboxamide]
  USP28 A-1(b) IC50 range: + (>2 μM)
